The text below walks through data of PMC6680932, “Structure–Antioxidant–Antiproliferative Activity Relationships of Natural C7 and C7–C8 Hydroxylated Flavones and Flavanones” (Antioxidants, 2019).

Data set [1] relates to LoVo (colon cancer). In words: Antiproliferative activity in vitro, SRB assay. As to conditions: 72 h exposure, SRB, read-out: IC50 ± SD LoVo. It is filed as cell-based, human. The protocol: (§1) The antiproliferative studies were performed in vitro using human cancer cell lines—MV-4-11 (biphenotypic B myelomonocytic leukemia), MCF7 (breast carcinoma), LoVo (colon cancer), LoVo/DX (colon cancer doxorubicin-resistant), and DU 145 (prostate cancer)—and normal human cell lines—MCF 10A (breast cells) and HLMEC (lung microvascular endothelial cells). The cell lines MV-4-11, LoVo, DU 145, and MCF 10A were obtained from the American Type Culture Collection (Rockville, Maryland, USA), MCF7 from the European Collection of Authenticated Cell Cultures (ECACC, Salisbury, UK), LoVo/DX courtesy of Professor E. Borowski (Technical University of Gdansk, Poland), and HLMECs (which had been already immortalized by transfection with pSV3-neoplasmid containing large T-antigen gene) were the kind gift of Professor Claudine Kieda (Center for Molecular Biophysics, Orleans, France). The cell lines are being maintained in the Hirszfeld Institute of Immunology and Experimental Therapy, Polish Academy of Sciences (HIIET, PAS), Wroclaw, Poland. All cell lines were grown at 37 °C with 5% CO2 humidified atmosphere. The MV-4-11 cells were cultured in RPMI 1640 medium with GlutaMAX (Gibco, Scotland, UK), supplemented with 1 mM sodium pyruvate and 10% fetal bovine serum (both from Sigma-Aldrich, Poznan, Poland). The MCF7 cells were cultured in Eagle medium (HIIET, PAS, Wroclaw, Poland) supplemented with 2 mM L-glutamine, 10% fetal bovine serum, 1% nonessential amino acid solution, and 0.8 mg/L of insulin (all from Sigma-Aldrich, Poznan, Poland). The LoVo and LoVo/DX cells were cultured in a 1:1 (v/v) mixture of RPMI 1640 and Opti-MEM (both HIIET, PAS, Wroclaw, Poland), supplemented with 1 mM sodium pyruvate, 2 mM L-glutamine, and 5% fetal bovine serum (all from Sigma-Aldrich, Poznan, Poland). For LoVo/DX cells, additionally 10 µg/100 mL of doxorubicin (Accord Healthcare) was added to the medium. DU 145 cells were cultured in Eagle medium (HIIET, PAS, Wroclaw, Poland) supplemented with 1 mM sodium pyruvate, 4 mM L-glutamine, and 10% fetal bovine serum (all from Sigma-Aldrich, Poznan, Poland). The MCF 10A cells were cultured in the F-12 nutrient mixture (Gibco, Scotland, UK), supplemented with 5% horse serum (Gibco, Scotland, UK), 0.05 μg/mL of cholera toxin (Vibrio cholerae), 0.5 μg/mL of hydrocortisone, 10 μg/mL of insulin, and 20 ng/mL of human epidermal growth factor (all from Sigma-Aldrich, Poznan, Poland). The HLMEC cells were cultured in the RPMI 1640 medium (HIIET, PAS, Wroclaw, Poland) with the addition of 2 mM L-glutamine (Sigma-Aldrich, Poznan, Poland) and 10% fetal bovine serum (GE Healthcare). All culture media were supplemented with 100 units/mL penicillin (Polfa Tarchomin S.A., Warsaw, Poland) and 100 µg/mL streptomycin (Sigma-Aldrich, Poznan, Poland). Twenty-four hours before addition of the tested agents, the cells were plated in 96-well plates (Sarstedt, Germany) at a density of 1 × 10^4 (1 × 10^3 for HLMEC and 0.75 × 10^4 for MCF7) cells per well in 100 μL of culture medium.
(§2) Tested compounds were dissolved in DMSO and then diluted in a 1:1 (v/v) mixture of RPMI 1640 (HIIET, PAS, Wroclaw, Poland) and Opti-MEM (Gibco, Scotland, UK) medium supplemented with 2 mM L-glutamine (Sigma-Aldrich, Poznan, Poland), 5% fetal bovine serum (GE Healthcare), 100 units/mL penicillin (Polfa Tarchomin S.A., Warsaw, Poland), and 100 µg/mL streptomycin (Sigma-Aldrich, Poznan, Poland). The antiproliferative effects of the flavonoids were examined after 72 h of exposure of the cultured cells to varying concentrations of the tested agents (from 0.1 to 100 μg/mL) using the MTT (for MV-4-11 cells) or SRB assay described below. Cisplatin (chemotherapy drug used to treat a number of cancers) was used as a positive control. The results are presented as an inhibitory concentration 50 (IC50), which is the concentration of the tested agent that inhibits proliferation of the cell population by 50%. IC50 values for each experiment were calculated separately. […]

The subject of data set [2] is HLMEC (lung microvascular endothelial cells). Kind of data set: Antiproliferative activity in vitro, SRB assay. As to conditions: 72 h exposure, SRB, normal cell line, read-out: IC50 ± SD HLMEC. It is filed as cell-based, human. As to the method:
as §1, §2
(Sulforhodamine B stains cellular protein and so reports cell mass.)

Data set [3] deals with MCF7 (breast carcinoma). Kind of data set: Antiproliferative activity in vitro, SRB assay. As to conditions: 72 h exposure, SRB, read-out: IC50 ± SD MCF7. It is filed as cell-based, human. The protocol: as §1, §2
In data set [4] the test system is MCF 10A (breast cells). Kind of data set: Antiproliferative activity in vitro, SRB assay. It is filed as cell-based, human. The settings on record: 72 h exposure, SRB, normal cell line, read-out: IC50 ± SD MCF 10A. The protocol: as §1, §2
Data set [5] is described as follows: DPPH free radical scavenging activity assay. The settings on record: 10 min, 517 nm; mean ± SD. The protocol: (§3) The antioxidant capacity of flavonoids was measured in three separate tests: ABTS, DPPH, and ferric ion reducing antioxidant power (FRAP) assays (ABTS, DPPH, and FRAP reagents from Sigma-Aldrich). All tested compounds were dissolved in DMSO. All determinations were performed in triplicate. Standard curves were prepared for all assays using different concentrations of Trolox (6-hydroxy-2,5,7,8-tetramethylchroman-2-carboxylic acid) (Sigma-Aldrich). Trolox is a water-soluble analogue of vitamin E with high antioxidant activity, commonly used as a control and a reference in studies of antioxidant activity. The results were expressed as the equivalent of μmol Trolox per μmol of the test compound. The absorbance was measured using a UV-2401 PC spectrophotometer (Shimadzu, Kyoto, Japan). Concentrations of the tested samples were in the range from 50 µg/mL to 10 mg/mL.
The DPPH (2,2-diphenyl-1-picrylhydrazyl) radical scavenging activity of samples was determined according to the method described by Yen and Chen with some modifications. Samples (0.1 mL) of known concentration were mixed in polystyrene cuvettes with 2 mL of 0.04 mM DPPH in ethanol and 0.4 mL of ethanol. The absorbance was measured after 10 min at λ = 517 nm. The DPPH reagent was freshly prepared before each experiment.

Data set [6] concerns LoVo/DX (colon cancer doxorubicin-resistant). In words: Antiproliferative activity in vitro, SRB assay. It is filed as cell-based, human. As to conditions: 72 h exposure, read-out: IC50 ± SD LoVo/DX.
Data set [7] is described as follows: ABTS radical cation decolorization assay. As to conditions: 6 min incubation, 734 nm; mean ± SD. The protocol: as §3
The radical cation scavenging capacity of the tested compounds was examined against ABTS^+ (2,2’-azino-bis(3-ethylbenzo-thiazoline-6-sulfonic acid) according to the procedure described by Re et al. with some modifications. The test sample (30 μL) of known concentration was mixed in a polystyrene cuvette with 3 mL of ABTS solution with a measured absorption of 0.700 at a wavelength of λ = 734 nm. After 6 min of incubation, the absorption of samples was recorded. The ABTS reagent was freshly prepared before each experiment.

In data set [8] the test system is DU 145 (prostate cancer). Kind of data set: Antiproliferative activity in vitro, SRB assay. It is filed as cell-based, human. The settings on record: 72 h exposure, SRB, read-out: IC50 ± SD DU 145.
The nature of data set [9]: FRAP (ferric ion reducing antioxidant power) assay. The settings on record: 10 min, 593 nm; mean ± SD. The protocol: as §3
The FRAP method is based on measuring the ability of antioxidants to reduce ferric 2,4,6-tris(2-pyridyl)-1,3,5-triazine [Fe(III)-TPTZ] in the blue colored ferrous form, which absorbs light at λ = 593 nm. The Fe(III)-TPTZ reagent was prepared as a mixture of acetate buffer (pH 3.6), 10 mM TPTZ in 40 mM HCl, and 20 mM FeCl3 in the ratio of 10:1:1 (v/v/v). The FRAP reagent was freshly prepared before each experiment. The samples (0.1 mL) were mixed in polystyrene cuvettes with 3 mL of ferric complex and 0.9 mL of distilled water. The absorbance was measured after 10 min at λ = 593 nm.

For data set [10], the system named is MV-4-11 (biphenotypic B myelomonocytic leukemia). Kind of data set: Antiproliferative activity in vitro, MTT assay. It is filed as cell-based, human. The settings on record: read-out: IC50 ± SD MV-4-11. On the technique in general: Tetrazolium assays rely on reduction of a dye to a coloured formazan, in cell work by metabolically active cells.
Data set [11] is described as follows: Stability of flavonoids in DMSO (control), HPLC. It is filed as physicochemical. As to conditions: 3 h of incubation. The protocol: (§4) Flavonoids were dissolved (as described in Section 2.4) to the concentration of 100 µg/mL. The solutions corresponding to the solutions before the administration to the cell cultures were incubated in 96-well plates for 3 h and transferred to microtubes containing 400 µL of cold methanol (−20 °C) and kept at −20 °C for 1 h. After centrifugation at 12,000× g for 10 min, samples were analyzed by HPLC. Control experiments were also carried out to determine the stability of flavonoids in DMSO under analogous conditions.

Data set [12] can be described thus: Stability of flavonoids before administration to the cell cultures (diluted in RPMI 1640/Opti-MEM medium), HPLC. It is filed as physicochemical. The settings on record: 100 µg/mL, medium with 2 mM L-glutamine, 5% fetal bovine serum, penicillin, streptomycin; 3 h incubation. The protocol:
Tested compounds were dissolved in DMSO and then diluted in a 1:1 (v/v) mixture of RPMI 1640 (HIIET, PAS, Wroclaw, Poland) and Opti-MEM (Gibco, Scotland, UK) medium supplemented with 2 mM L-glutamine (Sigma-Aldrich, Poznan, Poland), 5% fetal bovine serum (GE Healthcare), 100 units/mL penicillin (Polfa Tarchomin S.A., Warsaw, Poland), and 100 µg/mL streptomycin (Sigma-Aldrich, Poznan, Poland). The antiproliferative effects of the flavonoids were examined after 72 h of exposure of the cultured cells to varying concentrations of the tested agents (from 0.1 to 100 μg/mL) using the MTT (for MV-4-11 cells) or SRB assay described below. Cisplatin (chemotherapy drug used to treat a number of cancers) was used as a positive control. The results are presented as an inhibitory concentration 50 (IC50), which is the concentration of the tested agent that inhibits proliferation of the cell population by 50%. IC50 values for each experiment were calculated separately.
as §4

Where [13] appears, read: Homo sapiens, MV4-11, 72 h exposure.

Like-named read-outs stand apart in the source and are kept apart here.

Consider `COc1ccc([C@@H]2CC(=O)c3c(O)cc(O)cc3O2)cc1O` [Compound 8, hesperetin], for which the IC50 in data set [1] (Homo sapiens, LoVo, 72 h) is 104 ± 5.55 µM; in data set [2] (Homo sapiens, Endothelial cell), 98.3 ± 7.62 µM; in [3] (Homo sapiens, MCF7), 167 ± 13.1 µM; in data set [4] (Homo sapiens, MCF-10A) it was 207 ± 23.4 µM; in data set [6] (Homo sapiens, LoVo/DX), 77.2 ± 19.4 µM; in [8] (Homo sapiens, DU-145) it was 215 ± 32.1 µM. Further, the IC50 in [10] (setting [13]) was 140 ± 12.9 µM. Further, the “TEAC DPPH” value in data set [5] is 0.098 ± 0.002 µmol trolox per µmol of tested. Moreover, the “TEAC ABTS” value in [7] is given as 13.254 ± 0.123 µmol trolox per µmol of tested. In addition, the “TEAC FRAP” value in [9] was 4.025 ± 0.175 µmol trolox per µmol of tested.
For `N.N.[Cl][Pt][Cl]` [Cisplatin, reference compound], the IC50 in data set [1] was 5.87 ± 1.72 µM; in data set [2], 1.07 ± 0.05 µM; in data set [3], 7.5 ± 1.32 µM; in data set [4], 10.6 ± 1.17 µM; in data set [6], 3.23 ± 0.77 µM; in data set [8] it was 1.47 ± 0.12 µM. Besides, in data set [10] (72 h exposure), the IC50 worked out at 1.6 ± 0.33 µM.
On to `O=C1C[C@@H](c2ccc(O)cc2)Oc2c(O)c(O)cc(O)c21` [Compound 14, 8-hydroxynaringenin], for which the “compound observed after incubation in DMSO” value in data set [11] is given as “over 99%”. The “stability after dilution with 1:1 RPMI 1640/Opti-MEM medium” value in [12] is on record as “complete decomposition”.
For `O=C1C[C@@H](c2ccc(O)cc2)Oc2cc(O)c(O)c(O)c21` [Compound 15, 6-hydroxynaringenin] the same measures were “over 99%” and “complete decomposition”.
With `O=C1C[C@@H](c2ccccc2)Oc2cc(O)cc(O)c21` [Compound 5, Pinocembrin], the IC50 in data set [1] (Homo sapiens, LoVo, 72 h) was determined as 116 ± 10.6 µM; in [2] (Homo sapiens, Endothelial cell), 96.6 ± 7.23 µM; in data set [3] (Homo sapiens, MCF7), 148 ± 6.57 µM; in data set [4] (Homo sapiens, MCF-10A), 125 ± 5.77 µM; in data set [6] (Homo sapiens, LoVo/DX), 67 ± 15.8 µM; in data set [8] (Homo sapiens, DU-145), 119 ± 22.4 µM. The IC50 in [10] (setting [13]) came out at 99.1 ± 34.1 µM. The “TEAC DPPH” value in data set [5] is 0.005 ± 0.001 µmol trolox per µmol of tested. Besides, in data set [7], the “TEAC ABTS” value is listed as 0.165 ± 0.009 µmol trolox per µmol of tested.
Consider `O=c1cc(-c2ccc(O)c(O)c2)oc2cc(O)cc(O)c12` [Compound 3, luteolin], for which the IC50 in [1] is 13.5 ± 0.65 µM; in [1] (Homo sapiens, LoVo, 72 h), 14 to 15 µM; in data set [2] (Homo sapiens, Endothelial cell) it was 9.22 ± 0.64 µM; in data set [3] (Homo sapiens, MCF7) it was 25.5 ± 6.33 µM; in [4] (Homo sapiens, MCF-10A) it was 33.1 ± 10.3 µM; in data set [6] (Homo sapiens, LoVo/DX), 13.7 ± 1.65 µM. Besides, the IC50 in data set [8] (Homo sapiens, DU-145) amounted to 21.9 ± 6.11 µM; in [10] (setting [13]) it was 8.73 ± 2.23 µM. In [5], the “TEAC DPPH” value is given as 10.50 ± 0.117 µmol trolox per µmol of tested. Further, the “TEAC ABTS” value in data set [7] is listed as 16.645 ± 0.897 µmol trolox per µmol of tested. The “TEAC FRAP” value in data set [9] is recorded as 17.686 ± 0.327 µmol trolox per µmol of tested.
